Test results reported in ChEMBL document CHEMBL1132393, “Structure-activity relationships of a novel class of Src SH2 inhibitors” (Bioorg Med Chem Lett, 1999).

The compounds below were run against Proto-oncogene tyrosine-protein kinase Src (Homo sapiens, UniProt P12931) (assay: Binding affinity against Src-homology 2 (SRC SH2).).
Proto-oncogene tyrosine-protein kinase Src, sequence (P12931 2-536 limits assumed): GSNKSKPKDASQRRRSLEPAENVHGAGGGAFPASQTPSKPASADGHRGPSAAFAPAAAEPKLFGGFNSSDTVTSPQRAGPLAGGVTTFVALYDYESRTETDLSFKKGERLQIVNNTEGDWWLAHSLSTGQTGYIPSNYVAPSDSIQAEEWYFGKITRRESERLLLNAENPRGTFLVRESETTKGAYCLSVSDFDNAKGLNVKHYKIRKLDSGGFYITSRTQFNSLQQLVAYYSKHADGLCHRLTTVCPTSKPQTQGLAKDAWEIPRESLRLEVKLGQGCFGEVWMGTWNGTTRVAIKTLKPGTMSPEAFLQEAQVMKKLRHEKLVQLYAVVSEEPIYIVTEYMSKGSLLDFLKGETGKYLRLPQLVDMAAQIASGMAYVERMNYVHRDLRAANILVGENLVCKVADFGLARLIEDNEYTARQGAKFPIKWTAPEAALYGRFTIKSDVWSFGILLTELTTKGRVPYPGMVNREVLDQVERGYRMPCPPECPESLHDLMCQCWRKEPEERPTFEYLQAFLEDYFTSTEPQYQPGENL

IC50 [µM]	Structure (SMILES)
33	CC(=O)N[C@@H](Cc1ccc(OP(=O)(O)O)cc1)C(=O)N[C@@H](Cc1c[nH]c2ccccc12)c1nc(CCC(C)C)no1
62	CC(=O)N[C@@H](Cc1ccc(OP(=O)(O)O)cc1)C(=O)N[C@@H](Cc1c[nH]c2ccccc12)c1nc(CC2CCCCC2)no1
16	CCCCCCc1noc([C@H](Cc2c[nH]c3ccccc23)NC(=O)[C@H](Cc2ccc(OP(=O)(O)O)cc2)NC(C)=O)n1
25	CC(=O)N[C@@H](Cc1ccc(OP(=O)(O)O)cc1)C(=O)N[C@@H](Cc1c[nH]c2ccccc12)c1nc(Cc2ccccc2)no1
279	CC(=O)N[C@@H](Cc1ccc(OP(=O)(O)O)cc1)C(=O)N[C@@H](Cc1c[nH]c2ccccc12)c1nc(Cc2cccc3ccccc23)no1
89	CC(=O)N[C@@H](Cc1ccc(OP(=O)(O)O)cc1)C(=O)N[C@@H](Cc1c[nH]c2ccccc12)c1nc(CCCC(C)C)no1
22	CCCCCCCc1noc([C@H](CC)NC(=O)[C@H](Cc2ccc(OP(=O)(O)O)cc2)NC(C)=O)n1
25	CCCCCCc1noc([C@H](CC)NC(=O)[C@H](Cc2ccc(OP(=O)(O)O)cc2)NC(C)=O)n1
12	CCCCCCc1cnc([C@H](CC)NC(=O)[C@H](Cc2ccc(OP(=O)(O)O)cc2)NC(C)=O)s1
35	CCCCCCCc1noc([C@H](Cc2c[nH]c3ccccc23)NC(=O)[C@H](Cc2ccc(OP(=O)(O)O)cc2)NC(C)=O)n1
14	CCCCCCc1cnc([C@H](Cc2c[nH]c3ccccc23)NC(=O)[C@H](Cc2ccc(OP(=O)(O)O)cc2)NC(C)=O)s1
36	CCCCCc1noc([C@H](Cc2c[nH]c3ccccc23)NC(=O)[C@H](Cc2ccc(OP(=O)(O)O)cc2)NC(C)=O)n1

The next lines start with the compound.

Structure (SMILES)	IC50 [µM]
CCCCCc1noc([C@H](CCC(=O)O)NC(=O)[C@H](Cc2ccc(OP(=O)(O)O)cc2)NC(C)=O)n1	21
CCCCCCCc1noc([C@H](CCC(=O)O)NC(=O)[C@H](Cc2ccc(OP(=O)(O)O)cc2)NC(C)=O)n1	7
CC[C@H](NC(=O)[C@H](Cc1ccc(OP(=O)(O)O)cc1)NC(C)=O)c1nc(CCC(C)C)no1	111
CC(=O)N[C@@H](Cc1ccc(OP(=O)(O)O)cc1)C(=O)N[C@@H](CCC(=O)O)c1nc(CCC(C)C)no1	61
CC(=O)N[C@@H](Cc1ccc(OP(=O)(O)O)cc1)C(=O)N[C@@H](CCC(=O)O)c1nc(CC2CCCCC2)no1	29
CCCCCCc1noc([C@H](CCC(=O)O)NC(=O)[C@H](Cc2ccc(OP(=O)(O)O)cc2)NC(C)=O)n1	8
CC(=O)N[C@@H](Cc1ccc(OP(=O)(O)O)cc1)C(=O)N[C@@H](CCC(N)=O)c1nc(CCC(C)C)no1	320
CC(=O)N[C@@H](Cc1ccc(OP(=O)(O)O)cc1)C(=O)N[C@@H](CCC(=O)O)c1nc(CC(C)C)no1	166
CC(=O)N[C@@H](Cc1ccc(OP(=O)(O)O)cc1)C(=O)N[C@@H](CCC(=O)O)c1nc(Cc2ccccc2)no1	92
CC(=O)N[C@@H](Cc1ccc(OP(=O)(O)O)cc1)C(=O)N[C@@H](CCC(=O)O)c1ncc(CC2CCCCC2)s1	16
CC(=O)N[C@@H](Cc1ccc(OP(=O)(O)O)cc1)C(=O)NCc1nc(CC2CCCCC2)no1	896
CC(=O)N[C@@H](Cc1ccc(OP(=O)(O)O)cc1)C(=O)NCc1nc(CC2CCCCC2)cs1	483
CC(=O)N[C@@H](Cc1ccc(OP(=O)(O)O)cc1)C(=O)N[C@@H](CCC(=O)O)c1nc(CC2CCCCC2)cs1	26
CCCCCc1noc([C@H](CC)NC(=O)[C@H](Cc2ccc(OP(=O)(O)O)cc2)NC(C)=O)n1	65
CC(=O)N[C@@H](Cc1ccc(OP(=O)(O)O)cc1)C(=O)N[C@@H](CCC(=O)O)c1nc(CCC(C)C)cs1	76
CCCCCCc1noc([C@H](CCC(N)=O)NC(=O)[C@H](Cc2ccc(OP(=O)(O)O)cc2)NC(C)=O)n1	24
CC(=O)N[C@@H](Cc1ccc(OP(=O)(O)O)cc1)C(=O)N[C@@H](CCC(=O)O)c1nc(CC(C)C)cs1	218
CC(=O)N[C@@H](Cc1ccc(OP(=O)(O)O)cc1)C(=O)N[C@@H](CCC(N)=O)c1nc(CC2CCCCC2)no1	278
CCCCc1noc([C@H](CCC(N)=O)NC(=O)[C@H](Cc2ccc(OP(=O)(O)O)cc2)NC(C)=O)n1	384
